Test results from ChEMBL document CHEMBL1135067, “Synthesis and antithrombotic activity of carbolinecarboxyl RGD sequence” (2002).
Where a SMILES comes first, the peptide text is derived from it. [ ]: non-standard residue; d: D form. Tpi = O=C(O)[C@@H]1Cc2c([nH]c3ccccc23)CN1

Legend:
Format in all cases: functional
[1] = species: Oryctolagus cuniculus; test: Tested in vitro for the maximal rate of platelet aggregation induced by platelet activating factor (10 e-7 mol/L) at a dose of 10 e6 mol/L in rabbit blood
[2] = species: Oryctolagus cuniculus; test: Tested in vitro for maximal rate of platelet aggregation induced by adenosine diphosphate (10 e5 mol/L) at a dose of 10 e5 mol/L in rabbit blood
[3] = tested on: SACC-LM; test: Tested for the effect of compound on the adhesion of high pulmonary metastatic SACC cell line SACC-LM and platelets at 5 mg/mL
[4] = tested on: Rattus norvegicus; test: Tested for the effect on the dry thrombus weight at a dose of 5 umol/kg in male wistar anesthetized rat
[5] = tested on: Rattus norvegicus; test: Tested for the effect on the wet thrombus weight at a dose of 5 umol/kg in male wistar anesthetized rat
[6] = species: Oryctolagus cuniculus; test: Tested in vitro for maximal rate of platelet aggregation induced by adenosine diphosphate (10 e5 mol/L) at a dose of 10 e7 mol/L in rabbit blood
[7] = species: Oryctolagus cuniculus; test: Tested in vitro for maximal rate of platelet aggregation induced by adenosine diphosphate (10 e5 mol/L) at a dose of 10 e6 mol/L in rabbit blood
[8] = species: Oryctolagus cuniculus; test: Tested in vitro for the maximal rate of platelet aggregation induced by platelet activating factor (10 e-7 mol/L) at a dose of 10 e7 mol/L in rabbit blood
[9] = species: Oryctolagus cuniculus; test: Tested in vitro for the maximal rate of platelet aggregation induced by platelet activating factor (10 e-7 mol/L) at a dose of 10 e5 mol/L in rabbit blood
[10] = tested on: Rattus norvegicus; test: Tested for the effect on the wet thrombus weight at a dose of 5 uM/kg in male wistar anesthetized rat
[11] = tested on: Rattus norvegicus; test: Tested for the effect on the dry thrombus weight at a dose of 5 uM/kg in male wistar anesthetized rat

Row | SMILES | Am [1] [%] | Am [2] [%] | Activity [3] [%] | Thrombus weight [4] [mg] | Thrombus weight [5] [mg] | Am [6] [%] | Am [7] [%] | Am [8] [%] | Am [9] [%] | Thrombus weight [10] [mg] | Thrombus weight [11] [mg]
1 | NC(N)=NCCC[C@H](N)C(=O)NCC(=O)N[C@@H](CC(=O)O)C(=O)N[C@@H](Cc1ccccc1)C(=O)O (H-RGDF-OH) | 23.8 | 7.36 | 29.7 | 4.14 | 26.61 | 35.7 | 22.11 | 39.18 | 7.81 | – | –
2 | CC(C)[C@H](NC(=O)[C@H](CC(=O)O)NC(=O)CNC(=O)[C@@H](N)CCCN=C(N)N)C(=O)O (H-RGDV-OH) | 34.17 | 9.8 | 32.1 | 6.03 | 34.62 | 51.16 | 29.4 | 54.36 | 19.56 | – | –
3 | N=C(N)NCCC[C@H](NC(=O)[C@@H]1Cc2c([nH]c3ccccc23)CN1)C(=O)NCC(=O)N[C@@H](CC(=O)O)C(=O)N[C@@H](Cc1ccccc1)C(=O)O (H-[Tpi]RGDF-OH) | 25.54 | 9.01 | 28.1 | 2.76 | – | 36.05 | 21.05 | 36.05 | 20.05 | 22.3 | –
4 | N=C(N)NCCC[C@H](NC(=O)[C@@H]1Cc2c([nH]c3ccccc23)CN1)C(=O)NCC(=O)N[C@@H](CC(=O)O)C(=O)N[C@@H](CO)C(=O)O (H-[Tpi]RGDS-OH) | 34.15 | 16.11 | 36.1 | 4.98 | 28.09 | 50.16 | 43.05 | 56.1 | 28.07 | – | –
5 | CC(C)[C@H](NC(=O)[C@H](CC(=O)O)NC(=O)CNC(=O)[C@H](CCCN=C(N)N)NC(=O)[C@@H]1Cc2c([nH]c3ccccc23)CN1)C(=O)O (H-[Tpi]RGDV-OH) | 35.05 | 10.75 | 30.2 | 4.87 | 29.49 | 50.2 | 26.01 | 54.1 | 24.11 | – | –
6 | N=C(N)NCCC[C@H](N)C(=O)NCC(=O)N[C@@H](CC(=O)O)C(=O)NC(CO)C(=O)O (single isomer, unassigned) | 36.15 | 14.22 | 35.8 | 7.68 | 43.61 | 52.85 | 40.54 | 57.2 | 21.16 | – | –
7 | O=C(O)[C@@H]1Cc2c([nH]c3ccccc23)CN1 [CYCLOMETHYLTRYPTOPHAN] | 50.18 | 24.6 | 45.6 | – | 42.99 | 53.66 | 45.16 | 55.15 | 35.66 | – | 7.17
